From ChEMBL document CHEMBL1201862, “PubChem BioAssay data set” (2004) come the findings set out here.

Test systems include A549; CAKI-1; COLO 205; HCC 2998; HCT-15; HOP-62; HT-29; K562; M14; MDA-MB-435; Malme-3M; RPMI-8226; RXF 393; SF-295; SK-MEL-28; SK-MEL-2; SN12C; SNB-78; TK-10; XF498.
What all share (experiment): DTP human tumour cell line panel, 48 h

The structures appear in SMILES notation.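 48-hour exposure; five concentrations; linearly interpolated endpoints. GI50 marks 50% less growth.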 Activity calls are given as the source filed them. Rule as the data show it: active = GI50 up to about 1.1 µM and inactive = higher.

One may read the GI50 as the concentration giving 50% growth inhibition. For the compound `O=c1[nH]c(=O)n(C2OC(CO)C(O)C(O)C2O)cc1F` (stereo not given), the GI50 is > 100000 nM (inactive) in the experiment on A549; > 100000 nM (inactive) in the experiment on CAKI-1; > 100000 nM (inactive) with COLO 205; > 100000 nM (inactive) in the experiment on HCC 2998; above 100000 nM in the experiment on HCT-15; > 100000 nM (inactive) with HOP-62. Moreover, the GI50 with HT-29, with K562, in the experiment on M14, in the experiment on MDA-MB-435, with Malme-3M and with RPMI-8226 was > 100000 nM (inactive) each time. The GI50 was > 76200 nM (inactive) with RXF 393; > 100000 nM (inactive) in the experiment on SF-295; > 100000 nM (inactive) with SK-MEL-28; > 100000 nM (inactive) with SK-MEL-2; > 100000 nM (inactive) in the experiment on SN12C; > 100000 nM (inactive) with SNB-78. Further, the GI50 in the experiment with TK-10 and with XF498 was > 100000 nM (inactive) each time.
On to `COc1ccc(CCc2cc(OC)c(OC)c(OC)c2)cc1`, for which the GI50 was 40.3 nM (active) with A549; 20.6 nM (active) with CAKI-1; 19.1 nM (active) with COLO 205; 56.8 nM (active) with HCC 2998; 16.9 nM with HCT-15; 19.6 nM (active) with HOP-62. Besides, the GI50 in the experiment with HT-29 is 23.5 nM (active); in the experiment with K562 it was 12 nM (active); with M14 it was 31.8 nM (active); with MDA-MB-435 it was < 10 nM (active); with Malme-3M, 271 nM (active); in the experiment with RPMI-8226, 30.9 nM (active). In addition, the GI50 with RXF 393 was 20.5 nM (active); in the experiment with SF-295, 17.8 nM (active); in the experiment with SK-MEL-28, 183 nM (active); in the experiment with SK-MEL-2, 146 nM (active); with SN12C, 114 nM (active); in the experiment with SNB-78, 16.9 nM (active). The GI50 with TK-10 was 2640 nM (inactive); with XF498 it was < 10 nM (active).
